Results as given in PubChem BioAssay (NCI).
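Cells were grown in 96-well plates and exposed to each compound for 48 hours at five concentrations; endpoints were interpolated linearly between bracketing concentrations, or set to the highest concentration if not reached. TGI: concentration producing complete growth inhibition.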

Columns and labels:
Experiment in all cases: NCI-60 cell line screen, 48 h
T-47D breast = test system: T-47D breast
K-562 leukemia = test system: K-562 leukemia
SK-MEL-2 melanoma = test system: SK-MEL-2 melanoma
SR leukemia = test system: SR leukemia
MDA-MB-435 = test system: MDA-MB-435
NCI/ADR-RES ovarian = test system: NCI/ADR-RES ovarian
KM12 colon = test system: KM12 colon
OVCAR-8 ovarian = test system: OVCAR-8 ovarian
MOLT-4 leukemia = test system: MOLT-4 leukemia
MCF7 breast = test system: MCF7 breast
MDA-N = test system: MDA-N
IGROV1 ovarian = test system: IGROV1 ovarian
UO-31 renal = test system: UO-31 renal
NCI-H460 lung = test system: NCI-H460 lung
PC-3 prostate = test system: PC-3 prostate
SK-OV-3 ovarian = test system: SK-OV-3 ovarian
SK-MEL-28 melanoma = test system: SK-MEL-28 melanoma
HCT-15 colon = test system: HCT-15 colon

Row | Structure (SMILES) | TGI (T-47D breast) | TGI (K-562 leukemia) | TGI (SK-MEL-2 melanoma) | TGI (SR leukemia) | TGI (MDA-MB-435) | TGI (NCI/ADR-RES ovarian) | TGI (KM12 colon) | TGI (OVCAR-8 ovarian) | TGI (MOLT-4 leukemia) | TGI (MCF7 breast) | TGI (MDA-N) | TGI (IGROV1 ovarian) | TGI (UO-31 renal) | TGI (NCI-H460 lung) | TGI (PC-3 prostate) | TGI (SK-OV-3 ovarian) | TGI (SK-MEL-28 melanoma) | TGI (HCT-15 colon)
1 | CCOP(=O)(OCC)/C(C#N)=C/c1ccc(-c2ccc(F)cc2F)o1 | 8.35 µM | 38.1 µM | 44 µM | 33.2 µM | 27 µM | 58.9 µM | 31.6 µM | 33.2 µM | 28.4 µM | 43 µM | 48.7 µM | 34.6 µM | 26.3 µM | 44.2 µM | 24.2 µM | 26.9 µM | 28.1 µM | 28.7 µM
2 | C=CC(C)(C)C(=C)C(=O)N(C)c1ccccc1I | > 100 µM | > 100 µM | > 100 µM | > 100 µM | > 100 µM | > 100 µM | > 100 µM | > 100 µM | > 100 µM | > 100 µM | > 100 µM | – | > 100 µM | > 100 µM | > 100 µM | > 100 µM | > 100 µM | > 100 µM
3 | C=CCOC1=C(OCC=C)C(C2COC(C)(C)O2)OC1=O (stereo unspecified) | > 100 µM | > 100 µM | > 100 µM | > 100 µM | > 100 µM | > 100 µM | > 100 µM | > 100 µM | > 100 µM | > 100 µM | > 100 µM | > 100 µM | > 100 µM | > 100 µM | > 100 µM | > 100 µM | > 100 µM | > 100 µM
4 | COc1cc(C[C@H]2C(=O)OC[C@@H]2Cc2ccc(OC)c(OC)c2)cc(OC)c1 | > 100 µM | > 100 µM | > 100 µM | > 100 µM | > 100 µM | > 100 µM | > 100 µM | > 100 µM | > 100 µM | > 100 µM | > 100 µM | > 100 µM | > 100 µM | > 100 µM | > 100 µM | > 100 µM | > 100 µM | > 100 µM
5 | C(=C\c1nccs1)/c1cccc(/C=C/c2nccs2)n1 | > 50 µM | > 50 µM | > 50 µM | > 50 µM | > 50 µM | > 50 µM | > 50 µM | > 50 µM | > 50 µM | > 50 µM | > 50 µM | > 50 µM | > 50 µM | > 50 µM | > 50 µM | > 50 µM | > 50 µM | > 50 µM
6 | CCN(CCCN(CC)C(=O)Nc1ccccc1)C(=O)Nc1ccccc1 | > 100 µM | > 100 µM | > 100 µM | > 100 µM | > 100 µM | > 100 µM | > 100 µM | > 100 µM | > 100 µM | > 100 µM | > 100 µM | > 100 µM | > 100 µM | > 100 µM | > 100 µM | > 100 µM | > 100 µM | > 100 µM
7 | CN=CN(C)c1c2ccccc2nc2ccccc12 | > 100 µM | > 100 µM | > 100 µM | > 100 µM | > 100 µM | > 100 µM | > 100 µM | > 100 µM | > 100 µM | > 100 µM | > 100 µM | > 100 µM | 28.1 µM | > 100 µM | > 100 µM | > 100 µM | > 100 µM | > 100 µM
8 | CCOP1(=O)C=C(Sc2ccc([N+](=O)[O-])cc2[N+](=O)[O-])C(C)(C)O1 (stereo unspecified) | 32 µM | > 20 µM | 35.3 µM | 7.17 µM | 28.5 µM | > 76.5 µM | 38.6 µM | 35.4 µM | > 100 µM | 17.2 µM | 17.6 µM | 30.4 µM | 28.3 µM | 49.2 µM | > 50.1 µM | 66.2 µM | 32 µM | 36.7 µM
9 | CCCCCCCCCCCCCCCCCCNc1ccn(C2OC(CO)C(O)C2O)c(=O)n1 (stereo unspecified) | > 100 µM | > 100 µM | > 100 µM | > 100 µM | > 100 µM | > 100 µM | > 100 µM | > 100 µM | > 49.7 µM | > 100 µM | > 100 µM | > 92.2 µM | > 100 µM | > 100 µM | > 89.1 µM | > 100 µM | > 100 µM | > 100 µM
10 | O=C(O)CCC(NC(=O)c1ccc(Nc2cnc3ccc(C(F)(F)F)cc3n2)cc1)C(=O)O (stereo unspecified) | > 100 µM | > 100 µM | > 100 µM | > 100 µM | > 100 µM | > 100 µM | > 100 µM | > 100 µM | > 100 µM | > 100 µM | > 100 µM | > 100 µM | > 100 µM | > 100 µM | > 100 µM | > 100 µM | > 100 µM | > 100 µM
11 | CC1(C)C2CCC(N)(C2)C1N (stereo unspecified) | > 100 µM | > 100 µM | > 100 µM | > 100 µM | > 100 µM | > 100 µM | > 100 µM | > 100 µM | > 100 µM | > 100 µM | > 100 µM | > 100 µM | > 100 µM | > 100 µM | > 100 µM | > 100 µM | > 100 µM | > 100 µM
12 | COc1ccc(C(=O)/C=C/c2ccc(OCCSCCCCCCCCCCSCCOc3ccc(/C=C/C(=O)c4ccc(OC)cc4)cc3)cc2)cc1 | > 100 µM | > 100 µM | > 100 µM | > 100 µM | > 100 µM | > 100 µM | > 100 µM | > 100 µM | > 100 µM | > 100 µM | > 100 µM | > 100 µM | > 100 µM | > 100 µM | > 100 µM | > 100 µM | > 100 µM | > 100 µM
13 | COc1cc(NCc2ccc3nc(-c4ccccc4)c(N)nc3c2)cc(OC)c1OC | 91 µM | > 100 µM | > 100 µM | > 100 µM | 50.7 µM | 57.8 µM | 54.5 µM | 57.3 µM | 58.6 µM | 55.9 µM | > 100 µM | > 100 µM | > 100 µM | > 100 µM | 93.6 µM | > 100 µM | 69 µM | > 100 µM
14 | O=C(Cn1cc(F)c(=O)[nH]c1=O)C12CC3CC(CC(C3)C1)C2 | > 100 µM | > 100 µM | > 100 µM | > 100 µM | > 100 µM | > 100 µM | > 100 µM | > 100 µM | > 100 µM | > 100 µM | > 100 µM | > 100 µM | > 100 µM | > 100 µM | > 100 µM | > 100 µM | > 100 µM | > 100 µM
15 | COc1ccc(C2C3CCc4ccccc4C3=NN2S(=O)(=O)c2ccc(Cl)cc2)cc1 (stereo unspecified) | > 100 µM | 41.8 µM | > 100 µM | 25.4 µM | 4.62 µM | 21.9 µM | > 100 µM | > 100 µM | > 100 µM | 34.8 µM | 9.19 µM | 52.9 µM | > 100 µM | > 100 µM | > 100 µM | 16 µM | – | 4.52 µM
16 | Cc1cc(C)nc(NC(=S)Nc2ccccc2Cl)c1 | > 100 µM | > 100 µM | > 100 µM | > 100 µM | > 100 µM | > 100 µM | > 100 µM | > 100 µM | > 100 µM | > 100 µM | > 100 µM | > 100 µM | > 100 µM | > 100 µM | > 100 µM | > 100 µM | > 100 µM | > 100 µM
